Measured values: patent US20240115744A1, “FIBRIN-BINDING COMPOUNDS FOR IMAGING AND TREATMENT” (Collagen Medical, LLC, priority 2019, published 2024)
Like-named read-outs stand apart in the source and are kept apart here. Where a SMILES comes first, the peptide text is derived from it. Bridges are numbered along the chain shown (N, C = ends). [ ]: non-standard residue; d: D form. The star is where a group is joined. Tyr(3-Cl) = N[C@@H](Cc1ccc(O)c(Cl)c1)C(=O)O; Nicotinoyl(6-F) = O=C(c1ccc(F)nc1)*; Hyp = O=C(O)[C@@H]1C[C@@H](O)CN1

Assays:
[1] = molecular target: T1, soluble fibrin fragment DD(E) (Homo sapiens, UniProt P02671+P02675+P02679, DEL433-453); experiment: Fluorescence polarization DD(E) binding/displacement assay; settings: for Ki: displacement of TRITC-labelled peptide from DD(E), TBS·Ca with 2% DMSO, estimated uncertainty ±10%; for Kd: sub-micromolar affinity, read-out: affinity (Kd) to fibrin as assessed by DD(E) assay
T1 construct: partial plasmin digestion of purified fibrin gel followed by size-exclusion chromatographic purification; made in house
Description: DD(E) was prepared using a published procedure which involved partial plasmin digestion of purified fibrin gel followed by size-exclusion chromatographic purification, and purity was assessed by SDS-PAGE. Peptides modified at the N-terminus with tetramethyl-rhodamine (TRITC) dye bind to DD(E). Direct fluorescent peptide binding to DD(E) was measured by a fluorescence polarization (FP) assay. The anisotropy (robs) of the fluorescently labeled peptides binding to DD(E) (0-20 μM) was measured in Tris buffered saline (50 mM Tris, 100 mM NaCl and 2 mM CaCl2) at fixed compound concentrations, and the data were fit to a single site model (Eq. 1) to obtain the dissociation constant (Kd) for the DD(E)·(fluorescent peptide) complex.
Displacement of the fluorescent peptide by non-fluorescent compound was measured to determine inhibition constants (Ki). In the presence of an inhibitor, an apparent dissociation constant for the fluorescent compound (Kd app) is determined using Eq. 2. The inhibition constant Ki is related to Kd app by Eq. 2, wherein Kd is the true dissociation constant of the fluorescent compound measured in the absence of inhibitor.
Non-labeled peptide binding to DD(E) was measured by a compound displacement assay, where a DD(E)/Fl·pep complex formed at fixed concentrations of DD(E) and Fl·pep was titrated with increasing concentrations of unlabeled compound. The compound was assayed by mixing DD(E) (4.0 μM, 10 μL) and TRITC (0.1 μM, 10 μL) with increasing concentrations of competing peptide (0.4-100 μM, 20 μL) in TBS·Ca with 2% DMSO in a final volume of 40 μL. Fluorescence polarization of the samples (10 μL, triplicate wells) in ascending concentrations was measured in a 384-well microplate (Corning flat black plate), using a Tecan Infinite 200 Pro fluorescence microplate reader equipped with fluorescence polarization filters, a 535 nm excitation filter and a 590 nm fluorescence emission filter. Average polarization (mP units) readings for each dilution of the compound of interest was converted to anisotropy (r) using Eq. 3.
The data defined a displacement curve (robs vs. [Peptide]), and the inhibitory binding constant, Ki, was determined by least squares fitting of the data (estimated uncertainty in Ki±10%). See Table 2 for the Ki values for the Compounds from Example 1.

[2] = molecular target: soluble fibrin fragment DD(E); experiment: fluorescence polarization, displacement of the TRITC peptide from DD(E)

T1 sequence (P02671 130-216 limits assumed, stated change not applied): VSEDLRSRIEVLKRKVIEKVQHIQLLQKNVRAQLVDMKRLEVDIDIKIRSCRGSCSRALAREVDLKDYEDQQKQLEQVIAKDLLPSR
T1 sequence (P02675 164-491 limits assumed, stated change not applied): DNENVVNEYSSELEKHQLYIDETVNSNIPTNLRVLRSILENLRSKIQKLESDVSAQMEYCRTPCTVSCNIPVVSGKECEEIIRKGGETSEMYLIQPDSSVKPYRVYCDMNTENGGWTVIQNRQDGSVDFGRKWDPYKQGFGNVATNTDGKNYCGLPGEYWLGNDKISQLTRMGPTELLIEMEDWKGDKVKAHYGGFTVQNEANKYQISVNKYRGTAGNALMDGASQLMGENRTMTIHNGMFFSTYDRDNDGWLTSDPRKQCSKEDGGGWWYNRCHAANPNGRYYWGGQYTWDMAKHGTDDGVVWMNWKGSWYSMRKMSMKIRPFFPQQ
T1 sequence (P02679 114-432 limits assumed, stated change not applied): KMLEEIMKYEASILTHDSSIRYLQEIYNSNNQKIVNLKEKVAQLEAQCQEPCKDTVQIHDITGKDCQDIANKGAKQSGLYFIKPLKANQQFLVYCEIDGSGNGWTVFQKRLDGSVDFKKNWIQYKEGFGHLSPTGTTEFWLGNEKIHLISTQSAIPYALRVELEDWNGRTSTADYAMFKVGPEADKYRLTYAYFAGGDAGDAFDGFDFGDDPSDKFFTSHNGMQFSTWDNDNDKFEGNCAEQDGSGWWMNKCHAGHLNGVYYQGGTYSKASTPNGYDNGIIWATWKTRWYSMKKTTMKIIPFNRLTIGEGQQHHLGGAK
T1 sequence (P02671 36-97 partner limits assumed): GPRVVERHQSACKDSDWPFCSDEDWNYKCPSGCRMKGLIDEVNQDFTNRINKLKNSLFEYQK
T1 sequence (P02675 45-152 partner limits assumed): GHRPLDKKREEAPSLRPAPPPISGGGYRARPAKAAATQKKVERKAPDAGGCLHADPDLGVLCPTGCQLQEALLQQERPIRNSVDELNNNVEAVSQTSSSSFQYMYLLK
T1 sequence (P02679 27-88 partner limits assumed): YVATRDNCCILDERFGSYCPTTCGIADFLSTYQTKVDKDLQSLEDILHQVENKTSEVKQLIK

Molecule	Ki ([1]; read-out: Ki) [nM]	Kd [1] [nM]	other results
CC[C@H](C)[C@H](NC(=O)[C@H](Cc1ccc(O)cc1)NC(=O)[C@@H]1CSSC[C@H](NC(=O)[C@@H](CCC(=O)O)NC(=O)[C@H](Cc2ccc(O)cc2)NC(=O)c2ccc(F)nc2)C(=O)N2C[C@H](O)C[C@H]2C(=O)N[C@@H](Cc2ccc(O)c(Cl)c2)C(=O)NCC(=O)N[C@@H](CC(C)C)C(=O)N1)C(=O)N[C@H](CC(C)C)C(N)=O [Compound 10, -Y-e-C-Hyp-Y(3-Cl)-G-L-C-Y-I-1-] ({Nicotinoyl(6-F)}-Y[dE]C[Hyp][Tyr(3-Cl)]GLCYI[dL]-NH2; disulfide 3-8)	950	–	–
CC[C@H](C)[C@H](NC(=O)[C@H](Cc1ccc(O)cc1)NC(=O)[C@@H]1CSSC[C@H](NC(=O)[C@@H](CCC(=O)O)NC(=O)[C@H](Cc2ccc(O)cc2)NC(=O)c2ccc(F)nc2)C(=O)N2C[C@H](O)C[C@H]2C(=O)N[C@@H](Cc2ccc(O)c(Cl)c2)C(=O)N[C@H](CC(=O)O)C(=O)N[C@@H](CC(C)C)C(=O)N1)C(=O)N[C@@H](CCC(N)=O)C(N)=O [Compound 14, -Y-e-C-Hyp-Y(3-Cl)-d-L-C-Y-I-Q-] ({Nicotinoyl(6-F)}-Y[dE]C[Hyp][Tyr(3-Cl)][dD]LCYIQ-NH2; disulfide 3-8)	2760	–	–
CC[C@H](C)[C@H](NC(=O)[C@H](Cc1c[nH]cn1)NC(=O)[C@@H]1CSSC[C@H](NC(=O)[C@@H](CCC(=O)O)NC(=O)[C@@H](Cc2ccc(O)cc2)NC(=O)c2ccc(F)nc2)C(=O)N2C[C@H](O)C[C@H]2C(=O)N[C@@H](Cc2ccc(O)c(Cl)c2)C(=O)NCC(=O)N[C@@H](CC(C)C)C(=O)N1)C(=O)N[C@H](CC(C)C)C(N)=O [Compound 3, -y-e-C-Hyp-Y(3-Cl)-G-L-C-H-I-1-] ({Nicotinoyl(6-F)}-[dY][dE]C[Hyp][Tyr(3-Cl)]GLCHI[dL]-NH2; disulfide 3-8)	140	< 600	–
CC[C@H](C)[C@H](NC(=O)[C@H](Cc1ccc(O)cc1)NC(=O)[C@@H]1CSSC[C@H](NC(=O)[C@@H](CCC(=O)O)NC(=O)[C@H](Cc2ccc(O)cc2)NC(=O)c2ccc(F)nc2)C(=O)N2C[C@H](O)C[C@H]2C(=O)N[C@@H](Cc2ccc(O)c(Cl)c2)C(=O)N[C@@H](CC(=O)O)C(=O)N[C@@H](CC(C)C)C(=O)N1)C(=O)N[C@@H](CCC(N)=O)C(N)=O [Compound 12, -Y-e-C-Hyp-Y(3-Cl)-D-L-C-Y-I-Q-] ({Nicotinoyl(6-F)}-Y[dE]C[Hyp][Tyr(3-Cl)]DLCYIQ-NH2; disulfide 3-8)	1200	–	–
-Y-h-C-Hyp-Y(3-Cl)-G-L-C-Y-I-Q- ({Nicotinoyl(6-F)}-Y[dH]C[Hyp][Tyr(3-Cl)]GLCYIQ-NH2; disulfide 3-8; not fully specified; printed as -Y-h-C-Hyp-Y(3-Cl)-G-L-C-Y-I-Q-) [Compound 15, N-terminal modified peptide (F is fluorine), C-terminal amide]	–	–	Ki [1]: No
CC[C@H](C)[C@H](NC(=O)[C@H](Cc1c[nH]cn1)NC(=O)[C@@H]1CSSC[C@H](NC(=O)[C@@H](CCC(=O)O)NC(=O)[C@H](Cc2ccc(O)cc2)NC(=O)c2ccc(F)nc2)C(=O)N2C[C@H](O)C[C@H]2C(=O)N[C@@H](Cc2ccc(O)c(Cl)c2)C(=O)NCC(=O)N[C@@H](CC(C)C)C(=O)N1)C(=O)N[C@H](CCC(N)=O)C(N)=O [Compound 5, -Y-e-C-Hyp-Y(3-Cl)-G-L-C-H-I-q-] ({Nicotinoyl(6-F)}-Y[dE]C[Hyp][Tyr(3-Cl)]GLCHI[dQ]-NH2; disulfide 3-8)	230	< 600	–
CC[C@H](C)[C@H](NC(=O)[C@H](Cc1ccc(O)cc1)NC(=O)[C@@H]1CSSC[C@H](NC(=O)[C@@H](CCC(=O)O)NC(=O)[C@@H](Cc2ccc(O)cc2)NC(=O)c2ccc(F)nc2)C(=O)N2C[C@H](O)C[C@H]2C(=O)N[C@@H](Cc2ccc(O)c(Cl)c2)C(=O)NCC(=O)N[C@@H](CC(C)C)C(=O)N1)C(=O)N[C@H](CC(C)C)C(N)=O [Compound 9, -y-e-C-Hyp-Y(3-Cl)-G-L-C-Y-I-1-] ({Nicotinoyl(6-F)}-[dY][dE]C[Hyp][Tyr(3-Cl)]GLCYI[dL]-NH2; disulfide 3-8)	730	–	–
CC[C@H](C)[C@H](NC(=O)[C@H](Cc1ccc(O)cc1)NC(=O)[C@@H]1CSSC[C@H](NC(=O)[C@@H](CCC(=O)O)NC(=O)[C@H](Cc2ccc(O)cc2)NC(=O)c2ccc(F)nc2)C(=O)N2C[C@H](O)C[C@H]2C(=O)N[C@@H](Cc2ccc(O)c(Cl)c2)C(=O)NCC(=O)N[C@@H](CC(C)C)C(=O)N1)C(=O)N[C@H](CCC(N)=O)C(N)=O [Compound 13, -Y-e-C-Hyp-Y(3-Cl)-G-L-C-Y-I-q-] ({Nicotinoyl(6-F)}-Y[dE]C[Hyp][Tyr(3-Cl)]GLCYI[dQ]-NH2; disulfide 3-8)	1250	–	–
CC[C@H](C)[C@H](NC(=O)[C@H](Cc1ccc(O)cc1)NC(=O)[C@@H]1CSSC[C@H](NC(=O)[C@@H](CCC(=O)O)NC(=O)[C@@H](Cc2ccc(O)cc2)NC(=O)c2ccc(F)nc2)C(=O)N2C[C@H](O)C[C@H]2C(=O)N[C@@H](Cc2ccc(O)c(Cl)c2)C(=O)NCC(=O)N[C@@H](CC(C)C)C(=O)N1)C(=O)N[C@H](CCC(N)=O)C(N)=O [Compound 11, -y-e-C-Hyp-Y(3-Cl)-G-L-C-Y-I-q-] ({Nicotinoyl(6-F)}-[dY][dE]C[Hyp][Tyr(3-Cl)]GLCYI[dQ]-NH2; disulfide 3-8)	1010	–	–
CC[C@H](C)[C@H](NC(=O)[C@H](Cc1c[nH]cn1)NC(=O)[C@@H]1CSSC[C@H](NC(=O)[C@@H](CCC(=O)O)NC(=O)[C@@H](Cc2ccc(O)cc2)NC(=O)c2ccc(F)nc2)C(=O)N2C[C@H](O)C[C@H]2C(=O)N[C@@H](Cc2ccc(O)c(Cl)c2)C(=O)NCC(=O)N[C@@H](CC(C)C)C(=O)N1)C(=O)N[C@@H](CCC(N)=O)C(N)=O [Compound 2, -y-e-C-Hyp-Y(3-Cl)-G-L-C-H-I-Q-] ({Nicotinoyl(6-F)}-[dY][dE]C[Hyp][Tyr(3-Cl)]GLCHIQ-NH2; disulfide 3-8)	70	< 600	–
CC[C@H](C)[C@H](NC(=O)[C@H](Cc1c[nH]cn1)NC(=O)[C@@H]1CSSC[C@H](NC(=O)[C@@H](CCC(=O)O)NC(=O)[C@H](Cc2ccc(O)cc2)NC(=O)c2ccc(F)nc2)C(=O)N2C[C@H](O)C[C@H]2C(=O)N[C@@H](Cc2ccc(O)c(Cl)c2)C(=O)NCC(=O)N[C@@H](CC(C)C)C(=O)N1)C(=O)N[C@H](CC(C)C)C(N)=O [Compound 8, -Y-e-C-Hyp-Y(3-Cl)-G-L-C-H-I-1-] ({Nicotinoyl(6-F)}-Y[dE]C[Hyp][Tyr(3-Cl)]GLCHI[dL]-NH2; disulfide 3-8)	640	–	–
CC[C@H](C)[C@H](NC(=O)[C@H](Cc1c[nH]cn1)NC(=O)[C@@H]1CSSC[C@H](NC(=O)[C@@H](CCC(=O)O)NC(=O)[C@H](Cc2ccc(O)cc2)NC(=O)c2ccc(F)nc2)C(=O)N2C[C@H](O)C[C@H]2C(=O)N[C@@H](Cc2ccc(O)c(Cl)c2)C(=O)NCC(=O)N[C@@H](CC(C)C)C(=O)N1)C(=O)N[C@@H](CCC(N)=O)C(N)=O [Compound 4, -Y-e-C-Hyp-Y(3-Cl)-G-L-C-H-I-Q-] ({Nicotinoyl(6-F)}-Y[dE]C[Hyp][Tyr(3-Cl)]GLCHIQ-NH2; disulfide 3-8)	180	< 600	–
{Nicotinoyl(6-F)}-Y[dE]C[Hyp][Tyr(3-Cl)]GLCYI[dL]-NH2 (disulfide 3-8; SMILES CC[C@H](C)[C@H](NC(=O)[C@H](Cc1ccc(O)cc1)NC(=O)[C@@H]1CSSC[C@H](NC(=O)[C@@H](CCC(=O)O)NC(=O)[C@H](Cc2ccc(O)cc2)NC(=O)c2ccc(F)nc2)C(=O)N2C[C@H](O)C[C@H]2C(=O)N[C@@H](Cc2ccc(O)c(Cl)c2)C(=O)NCC(=O)N[C@@H](CC(C)C)C(=O)N1)C(=O)N[C@H](CC(C)C)C(N)=O) [Compound 10]	–	–	Ki [2]: 950 nM
